Results on 43 molecules are retold here after patent publication US9434734B2, “Substituted pyrazoloquinazolinones and pyrroloquinazolinones as allosteric modulators of group II metabotropic glutamate receptors” (Domain Therapeutics, priority 2012, dated 2016).

SMILES strings stand for the structures. Where a name gives a salt, the structure may show the parent alone.

What is called melting point is the temperature of the solid-liquid transition. Molecule `Cc1cc(-c2ccc3c(=O)n(CC(F)(F)F)c4cc(C5CCOCC5)nn4c3c2)cc(C)n1.Cl` registered a melting point greater than 250 °C. As for `Cc1cc(-c2cc3n(C)c(=O)c4ccc(-c5ccn[nH]5)cc4n3n2)cc(C)n1.Cl`, the melting point is greater than 250 °C. With `Cc1ncccc1-c1ccc2c(=O)n(C)c3cc(-c4cnn(C)c4)nn3c2c1.Cl`, the melting point is 169 to 187 °C. Molecule `Cc1cc(N)nc(C)c1-c1ccc2c(=O)n(C)c3cc(-c4ccccc4)nn3c2c1.Cl` came in with a melting point greater than 250 °C.

As to `Cl.Cn1c(=O)c2ccc(-c3ccc(N)nc3C(F)(F)F)cc2n2nc(-c3ccccc3)cc12`, the melting point was greater than 250 °C. The value for `Cl.Cn1c(=O)c2ccc(-c3ccc(N4CCOCC4)nc3)cc2n2nc(-c3ccccc3)cc12` was 194 to 196 °C.

Regarding `Cl.Cn1c(=O)c2ccc(-c3ccc(N4CCCCC4)nc3)cc2n2nc(-c3ccccc3)cc12`, the melting point was 200 to 203 °C. The value for `COCCc1cc2n(C)c(=O)c3ccc(-c4cc(C)nc(C)c4)cc3n2n1.Cl` was 241 to 245 °C; that for `CCn1c(=O)c2ccc(-c3ccc(N)nc3)cc2n2nc(CCOC)cc12.Cl` was 163 to 170 °C. The value for `CCn1c(=O)c2ccc(-c3cc(C)nc(C)c3)cc2n2nc(CCOC)cc12.Cl` was 173 to 180 °C; that for `CCCn1c(=O)c2ccc(-c3ccc(N)nc3)cc2n2nc(CCOC)cc12.Cl` was 96 to 102 °C.

As for `CCCn1c(=O)c2ccc(-c3cc(C)nc(C)c3)cc2n2nc(CCOC)cc12.Cl`, the melting point was in the range of 120 to 125 °C. In the case of `COCc1cc2n(C)c(=O)c3ccc(-c4ccc(N)nc4)cc3n2n1.Cl`, the melting point was 235 to 242 °C. The value for `COCc1cc2n(C)c(=O)c3ccc(-c4cc(C)nc(C)c4)cc3n2n1.Cl` was greater than 250 °C; that for `CCCn1c(=O)c2ccc(-c3cc(C)nc(C)c3)cc2n2nc(C3CCCC3)cc12.Cl` was greater than 250 °C; that for `Cc1cc(-c2ccc3c(=O)n(CC(F)(F)F)c4cc(C5CCCC5)nn4c3c2)cc(C)n1.Cl` was greater than 250 °C. The figure for `Cl.Cn1c(=O)c2ccc(-c3ccncc3)cc2n2nc(C3CCOCC3)cc12` is 218 to 223 °C; for `Cc1ncccc1-c1ccc2c(=O)n(C)c3cc(C4CCOCC4)nn3c2c1.Cl` it is 167 to 169 °C. For the molecule `Cl.Cn1c(=O)c2ccc(-c3ccc(N)nn3)cc2n2nc(C3CCOCC3)cc12`, the melting point fell in the range of 140 to 146 °C. The value for `Cc1ccc(-c2ccc3c(=O)n(C)c4cc(C5CCOCC5)nn4c3c2)c(C)n1.Cl` was 231 to 235 °C; that for `Cc1cc(-c2cc3n(C)c(=O)c4ccc(-c5ccc(N)nc5)cc4n3n2)cc(C)n1` (as salt: salt) [Example 112, 8-(6-Amino-pyridin-3-yl)-2-(2,6-dimethyl-pyridin-4-yl)-4-methyl-4H-pyrazolo[1,5-a]quinazolin-5-one] was greater than 250 °C; that for `Cc1cc(-c2cc3n(C)c(=O)c4ccc(-c5cccnc5C)cc4n3n2)cc(C)n1` (as salt: salt) [Example 113, 2-(2,6-Dimethyl-pyridin-4-yl)-4-methyl-8-(2-methyl-pyridin-3-yl)-4H-pyrazolo[1,5-a]quinazolin-5-one] was greater than 250 °C.

`Cc1cc(-c2ccc3c(=O)n(C)c4cc(-c5cc(C)nc(C)c5)nn4c3c2)cc(C)n1` (as salt: salt) [Example 114, 2,8-Bis-(2,6-dimethyl-pyridin-4-yl)-4-methyl-4H-pyrazolo[1,5-a]quinazolin-5-one] gave a melting point greater than 250 °C.

With `Cc1cc(-c2cc3n(C)c(=O)c4ccc(-c5cccnc5)cc4n3n2)cc(C)n1` (as salt: salt) [Example 116, 2-(2,6-Dimethyl-pyridin-4-yl)-4-methyl-8-pyridin-3-yl-4H-pyrazolo[1,5-a]quinazolin-5-one], the melting point is greater than 250 °C.

With `Cc1ccc(-c2ccc3c(=O)n(C)c4cc(-c5cc(C)nc(C)c5)nn4c3c2)cn1` (as salt: salt) [Example 117, 2-(2,6-Dimethyl-pyridin-4-yl)-4-methyl-8-(6-methyl-pyridin-3-yl)-4H-pyrazolo[1,5-a]quinazolin-5-one], the melting point was greater than 250 °C. Take `Cc1cncc(-c2ccc3c(=O)n(C)c4cc(-c5cc(C)nc(C)c5)nn4c3c2)c1` (as salt: salt) [Example 118, 2-(2,6-Dimethyl-pyridin-4-yl)-4-methyl-8-(5-methyl-pyridin-3-yl)-4H-pyrazolo[1,5-a]quinazolin-5-one]: the melting point is greater than 250 °C. In the case of `Cc1cc(-c2cc3n(C)c(=O)c4ccc(-c5cnccc5C)cc4n3n2)cc(C)n1` (as salt: salt) [Example 119, 2-(2,6-Dimethyl-pyridin-4-yl)-4-methyl-8-(4-methyl-pyridin-3-yl)-4H-pyrazolo[1,5-a]quinazolin-5-one], the melting point was greater than 250 °C. With `CCc1ncccc1-c1ccc2c(=O)n(C)c3cc(-c4cc(C)nc(C)c4)nn3c2c1` (as salt: salt) [Example 120, 2-(2,6-Dimethyl-pyridin-4-yl)-8-(2-ethyl-pyridin-3-yl)-4-methyl-4H-pyrazolo[1,5-a]quinazolin-5-one], the melting point was greater than 250 °C. With `Cc1cc(-c2cc3n(C)c(=O)c4ccc(-c5cccnc5C)cc4n3n2)ccn1` (as salt: salt) [Example 132, 2-(2-methyl-pyridin-4-yl)-4-methyl-8-(2-methyl-pyridin-3-yl)-4H-pyrazolo[1,5-a]quinazolin-5-one], the melting point was greater than 250 °C. For the molecule `Cc1cc(-c2cc3n(C)c(=O)c4ccc(-c5cc(C)nc(C)c5)cc4n3n2)ccn1` (as salt: salt) [Example 133, 8-(2,6-Dimethyl-pyridin-4-yl)-4-methyl-2-(2-methyl-pyridin-4-yl)-4H-pyrazolo[1,5-a]quinazolin-5-one], the melting point is greater than 250 °C. The value for `Cc1ncccc1-c1ccc2c(=O)n(C)c3cc(-c4cccnc4)nn3c2c1` (as salt: salt) [Example 134, 4-Methyl-8-(2-methyl-pyridin-3-yl)-2-pyridin-3-yl-4H-pyrazolo[1,5-a]quinazolin-5-one] was greater than 250 °C. The molecule `Cn1c(=O)c2ccc(-c3cccc(-c4nn[nH]n4)c3)cc2n2nc(-c3ccccc3)cc12` (as salt: sodium) [Example 36, 4-Methyl-2-phenyl-8-[3-(2H-tetrazol-5-yl)-phenyl]-4H-pyrazolo[1,5-a]quinazolin-5-one] displayed a melting point greater than 250 °C. The value for `Cn1c(=O)c2ccc(-c3cccc(-c4nn[nH]n4)c3)cc2n2nc(C3CCOCC3)cc12` (as salt: sodium) [Example 96, 4-Methyl-2-(tetrahydro-pyran-4-yl)-8-[3-(2H-tetrazol-5-yl)-phenyl]-4H-pyrazolo[1,5-a]quinazolin-5-one] was 219 to 227 °C. Molecule `Cl.Cn1c(=O)c2ccc(-c3ccc(N)nc3)cc2n2nc(-c3ccccc3)cc12` [Example 2, 8-(6-Amino-pyridin-3-yl)-4-methyl-2-phenyl-4H-pyrazolo[1,5-a]quinazolin-5-one] displayed a melting point of 241 to 244 °C. In the case of `COc1ccc(-c2ccc3c(=O)n(C)c4cc(-c5ccccc5)nn4c3c2)cc1` [Example 7, 8-(4-Methoxy-phenyl)-4-methyl-2-phenyl-4H-pyrazolo[1,5-a]quinazolin-5-one], the melting point is greater than 250 °C. The figure for `COCc1cccc(-c2ccc3c(=O)n(C)c4cc(-c5ccccc5)nn4c3c2)c1` [Example 9, 8-(3-Methoxymethyl-phenyl)-4-methyl-2-phenyl-4H-pyrazolo[1,5-a]quinazolin-5-one] is 132 to 134 °C; for `COc1cccc(-c2ccc3c(=O)n(C)c4cc(-c5ccccc5)nn4c3c2)c1` [Example 11, 8-(3-Methoxy-phenyl)-4-methyl-2-phenyl-4H-pyrazolo[1,5-a]quinazolin-5-one] it is 182 to 185 °C.

`Cn1c(=O)c2ccc(-c3ccc(F)cc3)cc2n2nc(-c3ccccc3)cc12` [Example 12, 8-(4-Fluoro-phenyl)-4-methyl-2-phenyl-4H-pyrazolo[1,5-a]quinazolin-5-one] registered a melting point of 178 to 180 °C.

As for `Cn1c(=O)c2ccc(-c3nn[nH]n3)cc2n2nc(-c3ccccc3)cc12` [Example 22, 4-Methyl-2-phenyl-8-(2H-tetrazol-5-yl)-4H-pyrazolo[1,5-a]quinazolin-5-one], the melting point was greater than 250 °C. The figure for `CC(C)Cn1c(=O)c2ccc(-c3cccc(S(=O)(=O)N(C)C)c3)cc2n2nc(-c3ccccc3)cc12` [Example 41, 3-(4-isobutyl-5-oxo-2-phenyl-4,5-dihydro-pyrazolo[1,5-a]quinazolin-8-yl)-N,N-dimethyl-benzenesulfonamide] is 159 to 163 °C. The value for `Cn1c(=O)c2ccc(-c3cn[nH]c3)cc2n2nc(C3CCOCC3)cc12` [Example 87, 4-Methyl-8-(1H-pyrazol-4-yl)-2-(tetrahydro-pyran-4-yl)-4H-pyrazolo[1,5-a]quinazolin-5-one] was greater than 250 °C; that for `COc1ccc(-c2ccc3c(=O)n(C)c4cc(-c5cnn(C)c5)nn4c3c2)cc1` [Example 125, 8-(4-Methoxy-phenyl)-4-methyl-2-(1-methyl-1H-pyrazol-4-yl)-4H-pyrazolo[1,5-a]quinazolin-5-one] was 211 to 213 °C. The figure for `Cn1c(=O)c2ccc(-c3cccnc3C(F)(F)F)cc2n2nc(-c3ccnc(C(F)(F)F)c3)cc12` [Example 142, 4-Methyl-2-(2-trifluoromethyl-pyridin-4-yl)-8-(2-trifluoromethyl-pyridin-3-yl)-4H-pyrazolo[1,5-a]quinazolin-5-one] is greater than 250 °C.
